Tests used:
Format in all cases: in vivo
[1] = test system: Beet Armyworm (Spodoptera exigua, LAPHEG); test: Bioassays on Beet Armyworm (BAW), 128-well diet tray assay; conditions: for mortality at 50 µg/cm2: 168 h, 50 μg/cm^2 on artificial diet, second instar larvae, 25° C., five to seven days, read-out: BAW % Control (or Mortality) rating; for pest or weed control at 50 µg/cm2: Beet Armyworm, Table ABC Biological Results, read-out: BAW (rating)
Protocol: (§1) Certain molecules disclosed in this document were tested against BAW and CL using procedures described in the following examples. In the reporting of the results, the “BAW & CL Rating Table” was used (See Table Section).
Bioassays on BAW were conducted using a 128-well diet tray assay. One to five second instar BAW larvae were placed in each well (3 mL) of the diet tray that had been previously filled with 1 mL of artificial diet to which 50 μg/cm^2 of the test molecule (dissolved in 50 μL of 90:10 acetone-water mixture) had been applied (to each of eight wells) and then allowed to dry. Trays were covered with a clear self-adhesive cover, vented to allow gas exchange, and held at 25° C., 14:10 light-dark for five to seven days. Percent mortality was recorded for the larvae in each well; activity in the eight wells was then averaged. The results are indicated in the table entitled “Table ABC: Biological Results” (See Table Section).

[2] = test system: Cabbage Looper (Trichoplusia ni, TRIPNI); test: Bioassays on Cabbage Looper (CL), 128-well diet tray assay; conditions: for mortality at 50 µg/cm2: 168 h, 50 μg/cm^2 on artificial diet, second instar larvae, 25° C., five to seven days, read-out: CL % Control (or Mortality) rating; for pest or weed control at 50 µg/cm2: Cabbage Looper, Table ABC Biological Results, read-out: CL (rating)
Protocol: as §1
Bioassays on CL were conducted using a 128-well diet tray assay. One to five second instar CL larvae were placed in each well (3 mL) of the diet tray that had been previously filled with 1 mL of artificial diet to which 50 μg/cm^2 of the test molecule (dissolved in 50 μL of 90:10 acetone-water mixture) had been applied (to each of eight wells) and then allowed to dry. Trays were covered with a clear self-adhesive cover, vented to allow gas exchange, and held at 25° C., 14:10 light-dark for five to seven days. Percent mortality was recorded for the larvae in each well; activity in the eight wells was then averaged. The results are indicated in the table entitled “Table ABC: Biological Results” (See Table Section).

[3] = test system: Yellow Fever Mosquito (Aedes aegypti, AEDSAE); conditions: for YFM % Control (or Mortality) rating: about 1 day-old larvae, 96-well plate, room temperature, 3 days; for YFM (rating): Yellow Fever Mosquito, Table ABC Biological Results
Protocol: Certain molecules disclosed in this document were tested against YFM using procedures described in the following paragraph. In the reporting of the results, the “GPA & YFM Rating Table” was used (See Table Section).
Master plates containing 400 μg of a molecule dissolved in 100 μL of dimethyl sulfoxide (DMSO) (equivalent to a 4000 ppm solution) are used. A master plate of assembled molecules contains 15 μL per well. To this plate, 135 μL of a 90:10 water/acetone mixture is added to each well. A robot (Biomek® NXP Laboratory Automation Workstation) is programmed to dispense 15 μL aspirations from the master plate into an empty 96-well shallow plate (“daughter” plate). There are 6 reps (“daughter” plates) created per master. The created “daughter” plates are then immediately infested with YFM larvae.
The day before plates are to be treated, mosquito eggs are placed in Millipore water containing liver powder to begin hatching (4 g into 400 mL). After the “daughter” plates are created using the robot, they are infested with 220 μL of the liver powder/larval mosquito mixture (about 1 day-old larvae). After plates are infested with mosquito larvae, a non-evaporative lid is used to cover the plate to reduce drying. Plates are held at room temperature for 3 days prior to grading. After 3 days, each well is observed and scored based on mortality. The results are indicated in the table entitled “Table ABC: Biological Results” (See Table Section).

Row | SMILES | mortality at 50 µg/cm2 [1] | mortality at 50 µg/cm2 [2] | YFM % Control (or Mortality) rating [3] | pest or weed control at 50 µg/cm2 [1] | pest or weed control at 50 µg/cm2 [2] | YFM (rating) [3]
1 | Nc1c(F)ccc(NC(=O)c2cc(NC(=O)[C@H]3[C@H](c4cc(C(F)(F)F)cc(C(F)(F)F)c4)C3(Cl)Cl)ccc2Cl)c1F (relative stereo) [DP7, trans-N-(3-Amino-2,4-difluorophenyl)-5-(3-(3,5-bis(trifluoromethyl)phenyl)-2,2-dichlorocyclopropane-1-carboxamido)-2-chlorobenzamide] | 50 to 100% | 50 to 100% | A (80-100) |  |  | 
2 | CC(C)(C)OC(=O)N(C(=O)OC(C)(C)C)c1c(F)ccc(NC(=O)c2cc(NC(=O)[C@H]3[C@H](c4cc(Cl)c(Cl)c(Cl)c4)C3(Cl)Cl)ccc2Cl)c1F [DP1, tert-butyl-N-((tert-butoxy)carbonyl)-N-(3-(2-chloro-5-((1R,3R)-2,2-dichloro-3-(3,4,5-trichlorophenyl)cyclopropane-1-carboxamido)benzamido)-2,6-difluorophenyl)carbamate] | 0 to 50% | 0% | D (No activity noticed in this bioassay) |  |  | 
3 | Nc1c(F)ccc(NC(=O)c2cc(NC(=O)[C@H]3[C@H](c4cc(Cl)c(Cl)c(Cl)c4)C3(Cl)Cl)ccc2Cl)c1F [DP2, N-(3-amino-2,4-difluorophenyl)-2-chloro-5-((1R,3R)-2,2-dichloro-3-(3,4,5-trichlorophenyl)cyclopropane-1-carboxamido)benzamide] | 50 to 100% | 50 to 100% | A (80-100) |  |  | 
4 | Nc1c(F)ccc(NC(=O)c2cc(NC(=O)[C@H]3[C@H](c4ccc(Cl)c(Cl)c4)C3(Cl)Cl)ccc2Cl)c1F [DP3, N-(3-Amino-2,4-difluorophenyl)-2-chloro-5-((1R,3R)-2,2-dichloro-3-(3,4-dichlorophenyl)cyclopropane-1-carboxamido)benzamide] | 50 to 100% | 50 to 100% | A (80-100) |  |  | 
5 | Nc1c(F)ccc(NC(=O)c2cc(NC(=O)[C@H]3[C@H](c4ccc(F)c(Cl)c4)C3(Cl)Cl)ccc2Cl)c1F [DP4, N-(3-Amino-2,4-difluorophenyl)-2-chloro-5-((1R,3R)-2,2-dichloro-3-(3-chloro-4-fluorophenyl)cyclopropane-1-carboxamido)benzamide] | 50 to 100% | 50 to 100% | A (80-100) |  |  | 
6 | Nc1c(F)ccc(NC(=O)c2cc(NC(=O)[C@H]3[C@H](c4ccc(F)c(C(F)(F)F)c4)C3(Cl)Cl)ccc2Cl)c1F [DP5, N-(3-Amino-2,4-difluorophenyl)-2-chloro-5-((1R,3R)-2,2-dichloro-3-(4-fluoro-3-(trifluoromethyl)phenyl)cyclopropanecarboxamido)benzamide] | 50 to 100% | 50 to 100% | A (80-100) |  |  | 
7 | Nc1c(F)ccc(NC(=O)c2cc(NC(=O)[C@H]3[C@H](c4cc(F)cc(C(F)(F)F)c4)C3(Cl)Cl)ccc2Cl)c1F [DP8, N-(3-Amino-2,4-difluorophenyl)-2-chloro-5-((1R,3R)-2,2-dichloro-3-(3-fluoro-5-(trifluoromethyl)phenyl)cyclopropane-1-carboxamido)benzamide] | 50 to 100% | 50 to 100% | A (80-100) |  |  | 
8 | O=C(CSCC(F)(F)F)Nc1c(F)ccc(NC(=O)c2cc(NC(=O)[C@H]3[C@H](c4ccc(F)c(C(F)(F)F)c4)C3(Cl)Cl)ccc2Cl)c1F [F15, 2-chloro-5-((R,3R)-2,2-dichloro-3-(4-fluoro-3-(trifluoromethyl)phenyl)cyclopropane-1-carboxamido)-N-(2,4-difluoro-3-(2-((2,2,2-trifluoroethyl)thio)acetamido)phenyl)benzamide] |  |  |  | 50 to 100% | 50 to 100% | A (80-100)
9 | CC(SC(F)(F)F)C(=O)Nc1c(F)ccc(NC(=O)c2cc(NC(=O)[C@H]3[C@H](c4ccc(F)c(C(F)(F)F)c4)C3(Cl)Cl)ccc2Cl)c1F (stereo partly drawn) [F16, 2-Chloro-5-((1R,3R)-2,2-dichloro-3-(4-fluoro-3-(trifluoromethyl)phenyl)cyclopropane-1-carboxamido)-N-(2,4-difluoro-3-(2-((trifluoromethyl)thio)propanamido)phenyl)benzamide] |  |  |  | 50 to 100% | 50 to 100% | A (80-100)
10 | O=C(CSC(F)(F)F)Nc1c(F)ccc(NC(=O)c2cc(NC(=O)[C@H]3[C@H](c4ccc(F)c(C(F)(F)F)c4)C3(Cl)Cl)ccc2Cl)c1F [F17, 2-Chloro-5-((1R,3R)-2,2-dichloro-3-(4-fluoro-3-(trifluoromethyl)phenyl)cyclopropane-1-carboxamido)-N-(2,4-difluoro-3-(2-((trifluoromethyl)thio)acetamido)phenyl)benzamide] |  |  |  | 50 to 100% | 50 to 100% | A (80-100)
11 | CCSC(C)C(=O)Nc1c(F)ccc(NC(=O)c2cc(NC(=O)[C@H]3[C@H](c4ccc(F)c(C(F)(F)F)c4)C3(Cl)Cl)ccc2Cl)c1F (stereo partly drawn) [F18, 2-Chloro-5-((1R,3R)-2,2-dichloro-3-(4-fluoro-3-(trifluoromethyl)phenyl)cyclopropane-1-carboxamido)-N-(3-(2-(ethylthio)propanamido)-2,4-difluorophenyl)benzamide] |  |  |  | 50 to 100% | 50 to 100% | A (80-100)
12 | CCSCC(=O)Nc1c(F)ccc(NC(=O)c2cc(NC(=O)[C@H]3[C@H](c4ccc(F)c(C(F)(F)F)c4)C3(Cl)Cl)ccc2Cl)c1F [F19, 2-Chloro-5-((1R,3R)-2,2-dichloro-3-(4-fluoro-3-(trifluoromethyl)phenyl)cyclopropane-1-carboxamido)-N-(3-(2-(ethylthio)acetamido)-2,4-difluorophenyl)benzamide] |  |  |  | 50 to 100% | 50 to 100% | A (80-100)
13 | O=C(CCSCCC(F)(F)F)Nc1c(F)ccc(NC(=O)c2cc(NC(=O)[C@H]3[C@H](c4ccc(F)c(C(F)(F)F)c4)C3(Cl)Cl)ccc2Cl)c1F [F21, 2-Chloro-5-((1R,3R)-2,2-dichloro-3-(4-fluoro-3-(trifluoromethyl)phenyl)cyclopropane-1-carboxamido)-N-(2,4-difluoro-3-(3-((3,3,3-trifluoropropyl)thio)propanamido)phenyl)benzamide] |  |  |  | 50 to 100% | 50 to 100% | A (80-100)
14 | CCSCCC(=O)Nc1c(F)ccc(NC(=O)c2cc(NC(=O)[C@H]3[C@H](c4ccc(F)c(C(F)(F)F)c4)C3(Cl)Cl)ccc2Cl)c1F [F23, 2-Chloro-5-((1R,3R)-2,2-dichloro-3-(4-fluoro-3-(trifluoromethyl)phenyl)cyclopropane-1-carboxamido)-N-(3-(3-(ethylthio)propanamido)-2,4-difluorophenyl)benzamide] |  |  |  | 50 to 100% | 50 to 100% | A (80-100)
15 | O=C(CSCC(F)(F)F)Nc1ccc(NC(=O)c2cc(NC(=O)[C@H]3[C@H](c4ccc(F)c(C(F)(F)F)c4)C3(Cl)Cl)ccc2Cl)c(F)c1 [F52, 2-Chloro-5-((1R,3R)-2,2-dichloro-3-(4-fluoro-3-(trifluoromethyl)phenyl)cyclopropane-1-carboxamido)-N-(2-fluoro-4-(2-((2,2,2-trifluoroethyl)thio)acetamido)phenyl)benzamide] |  |  |  | 50 to 100% | 50 to 100% | 

From patent US20210015098A1, “MOLECULES HAVING PESTICIDAL UTILITY, AND INTERMEDIATES, COMPOSITIONS, AND PROCESSES, RELATED THERETO” (DOW AGROSCIENCES LLC, priority 2018, published 2021)
